According to patent US12600725B2 (Memorial Sloan-Kettering Cancer Center, priority 2013, dated 2026):

What was measured:
Trap-1 = target: T1, Trap-1 (Homo sapiens, UniProt Q12931); experiment: biochemical
T1 sequence (Q12931 60-704): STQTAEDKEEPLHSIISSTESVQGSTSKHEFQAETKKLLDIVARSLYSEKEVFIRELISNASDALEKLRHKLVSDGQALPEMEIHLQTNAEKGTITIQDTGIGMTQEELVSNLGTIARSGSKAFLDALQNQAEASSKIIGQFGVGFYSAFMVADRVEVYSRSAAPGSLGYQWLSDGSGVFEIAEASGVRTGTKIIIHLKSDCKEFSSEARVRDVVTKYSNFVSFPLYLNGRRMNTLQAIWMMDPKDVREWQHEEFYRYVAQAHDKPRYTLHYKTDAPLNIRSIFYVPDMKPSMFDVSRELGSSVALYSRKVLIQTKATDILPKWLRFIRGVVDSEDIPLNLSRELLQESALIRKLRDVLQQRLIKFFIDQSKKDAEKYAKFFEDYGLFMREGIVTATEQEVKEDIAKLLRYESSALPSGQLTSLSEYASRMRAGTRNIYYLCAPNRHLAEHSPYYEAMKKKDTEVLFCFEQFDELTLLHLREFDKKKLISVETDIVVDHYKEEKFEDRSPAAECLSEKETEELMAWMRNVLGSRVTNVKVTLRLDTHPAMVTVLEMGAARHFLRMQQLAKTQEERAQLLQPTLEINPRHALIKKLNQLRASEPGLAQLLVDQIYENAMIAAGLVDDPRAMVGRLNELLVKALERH

Hsp90α = Hsp90α (Homo sapiens, UniProt P07900); experiment: biochemical; conditions: FP competition, 6 nM Cy3B-GM, 10 nM protein, 4° C. for 24 h
Grp94 = Grp94 (Canis lupus familiaris, UniProt P41148); conditions: read-out: Grp94; FP competition, 6 nM Cy3B-GM, 10 nM protein, 4° C. for 24 h
Sequence of Grp94 (P41148 with tags, fused parts or gaps DELINS287-327GGGG): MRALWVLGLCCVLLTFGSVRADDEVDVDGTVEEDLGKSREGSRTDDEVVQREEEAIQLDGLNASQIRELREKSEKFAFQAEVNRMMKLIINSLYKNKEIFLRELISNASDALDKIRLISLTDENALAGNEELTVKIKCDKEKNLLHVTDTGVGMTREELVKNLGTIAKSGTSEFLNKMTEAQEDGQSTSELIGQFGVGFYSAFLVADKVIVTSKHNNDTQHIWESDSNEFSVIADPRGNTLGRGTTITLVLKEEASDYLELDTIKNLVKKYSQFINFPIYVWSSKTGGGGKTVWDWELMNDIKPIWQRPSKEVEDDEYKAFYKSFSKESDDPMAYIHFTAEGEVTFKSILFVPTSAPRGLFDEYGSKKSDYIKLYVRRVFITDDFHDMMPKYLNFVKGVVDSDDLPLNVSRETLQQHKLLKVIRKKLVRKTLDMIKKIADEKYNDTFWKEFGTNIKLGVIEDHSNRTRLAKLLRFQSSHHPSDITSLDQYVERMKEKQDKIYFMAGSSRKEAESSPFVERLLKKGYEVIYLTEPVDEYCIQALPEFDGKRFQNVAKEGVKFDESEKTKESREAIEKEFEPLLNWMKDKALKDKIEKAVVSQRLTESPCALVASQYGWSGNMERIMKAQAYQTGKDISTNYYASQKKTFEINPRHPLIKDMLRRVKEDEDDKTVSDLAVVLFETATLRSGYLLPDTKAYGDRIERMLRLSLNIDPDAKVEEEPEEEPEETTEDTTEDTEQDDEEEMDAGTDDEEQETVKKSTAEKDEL

Hsp90β = Hsp90β (Homo sapiens, UniProt P08238)
Sequence of Hsp90β (P08238 whole entry): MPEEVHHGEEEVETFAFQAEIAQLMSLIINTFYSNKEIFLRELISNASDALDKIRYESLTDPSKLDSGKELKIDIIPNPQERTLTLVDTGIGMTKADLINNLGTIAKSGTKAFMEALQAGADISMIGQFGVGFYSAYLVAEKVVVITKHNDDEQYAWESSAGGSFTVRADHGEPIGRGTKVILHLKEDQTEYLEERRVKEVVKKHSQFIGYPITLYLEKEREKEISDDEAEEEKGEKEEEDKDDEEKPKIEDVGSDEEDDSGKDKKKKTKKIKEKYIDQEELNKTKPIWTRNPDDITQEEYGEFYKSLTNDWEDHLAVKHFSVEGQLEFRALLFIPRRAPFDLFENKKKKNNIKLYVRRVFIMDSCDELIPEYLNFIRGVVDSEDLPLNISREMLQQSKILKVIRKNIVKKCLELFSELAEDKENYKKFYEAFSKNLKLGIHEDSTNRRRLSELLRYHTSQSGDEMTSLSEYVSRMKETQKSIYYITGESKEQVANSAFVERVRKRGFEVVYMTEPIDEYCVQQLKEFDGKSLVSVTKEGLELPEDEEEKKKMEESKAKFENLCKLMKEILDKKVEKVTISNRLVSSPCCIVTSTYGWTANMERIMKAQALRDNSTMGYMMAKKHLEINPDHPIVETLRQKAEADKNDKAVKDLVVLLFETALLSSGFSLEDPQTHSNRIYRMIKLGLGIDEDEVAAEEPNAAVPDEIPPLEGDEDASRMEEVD

Row | IC50 (Trap-1) [µM] | IC50 (Hsp90α) [µM] | IC50 (Grp94) [µM] | IC50 (Hsp90β) [µM] | SMILES
1 | 4.4 | 28.9 | 1.9 |  | CC(C)(CO)NCCn1c(Sc2ccc(Cl)cc2Cl)nc2c(N)ncnc21 [HJP-V-84, 2-((2-(6-Amino-8-((2,4-dichlorophenyl)thio)-9H-purin-9-yl)ethyl)amino)-2-methylpropan-1-ol]
2 | 2.6 | 9.2 | 2.3 |  | CC(C)(O)CNCCn1c(Sc2ccc(Cl)cc2Cl)nc2c(N)ncnc21 [HJP-V-85, 1-((2-(6-Amino-8-((2,4-dichlorophenyl)thio)-9H-purin-9-yl)ethyl)amino)-2-methylpropan-2-ol]
3 | 4.47 ± 0.31 | > 50 | 0.45 ± 0.03 | > 100 | N#CCCCn1c(Sc2cc(Cl)cc(Cl)c2)nc2c(N)ncnc21 [PDP-93A, 4-(6-Amino-8-((3,5-dichlorophenyl)thio)-9H-purin-9-yl)butanenitrile]
4 | > 100 | > 100 | > 100 | > 100 | N#CCCCn1cnc(N)c2nc(Sc3cc(Cl)cc(Cl)c3)nc1-2 [PDP-93B, 4-(6-Amino-8-((3,5-dichlorophenyl)thio)-3H-purin-3-yl)butanenitrile]
5 | > 100 | > 100 | 1.52 ± 0.03 | > 100 | CC(Br)CCCn1c(Sc2cc(Cl)cc(Cl)c2)nc2c(N)ncnc21 (centres unmarked) [PDP-99A, 9-(4-Bromopentyl)-8-((3,5-dichlorophenyl)thio)-9H-purin-6-amine]
6 | > 100 | > 100 | > 10 |  | CC(Br)CCCn1cnc(N)c2nc(Sc3cc(Cl)cc(Cl)c3)nc1-2 (centres unmarked) [PDP-99B, 3-(4-Bromopentyl)-8-((3,5-dichlorophenyl)thio)-3H-purin-6-amine]
7 | > 100 | > 100 | > 100 | > 100 | Nc1ncn(CCCCCC(F)(F)F)c2nc(Sc3cc(Cl)cc(Cl)c3)nc1-2 [PDP-101A, 8-((3,5-Dichlorophenyl)thio)-3-(6,6,6-trifluorohexyl)-3H-purin-6-amine]
8 | > 100 | > 100 | 1.65 ± 0.31 | > 100 | Nc1ncnc2c1nc(Sc1cc(Cl)cc(Cl)c1)n2CCCCCC(F)(F)F [PDP-101B, 8-((3,5-Dichlorophenyl)thio)-9-(6,6,6-trifluorohexyl)-9H-purin-6-amine]
9 | > 50 | > 100 | > 5 | > 100 | CC#CCn1c(Sc2cc(Cl)cc(Cl)c2)nc2c(N)ncnc21 [PDP-102A, 9-(But-2-yn-1-yl)-8-((3,5-dichlorophenyl)thio)-9H-purin-6-amine]
10 | > 25 | > 100 | 10.3 ± 0.82 | > 100 | CC#CCn1cnc(N)c2nc(Sc3cc(Cl)cc(Cl)c3)nc1-2 [PDP-102B, 3-(But-2-yn-1-yl)-8-((3,5-dichlorophenyl)thio)-3H-purin-6-amine]
11 | > 50 | > 100 | > 5 |  | Nc1ncnc2c1nc(Sc1cc(Cl)cc(Cl)c1)n2Cc1ccccc1 [PDP-107A, 9-Benzyl-8-((3,5-dichlorophenyl)thio)-9H-purin-6-amine]
12 | > 100 | > 100 | 11.6 | > 100 | Nc1ncn(Cc2ccccc2)c2nc(Sc3cc(Cl)cc(Cl)c3)nc1-2 [PDP-107B, 3-Benzyl-8-((3,5-dichlorophenyl)thio)-3H-purin-6-amine]
13 | > 50 | > 50 | 0.133 | > 100 | C#CCCCn1c(Sc2cc(Br)cc(I)c2)nc2c(N)ncnc21 [PDP-108A]
14 | > 100 | > 100 | 1.11 ± 0.28 | > 100 | Nc1ncnc2c1nc(Sc1cc(Cl)cc(Cl)c1)n2CCCCC(F)(F)F [PDP-109A, 8-((3,5-Dichlorophenyl)thio)-9-(5,5,5-trifluoropentyl)-9H-purin-6-amine]
15 | > 100 | > 100 | > 5 | > 100 | Nc1ncn(CCCCC(F)(F)F)c2nc(Sc3cc(Cl)cc(Cl)c3)nc1-2 [PDP-109B, 8-((3,5-Dichlorophenyl)thio)-3-(5,5,5-trifluoropentyl)-3H-purin-6-amine]
16 | > 100 | > 100 | 4.34 ± 0.75 | > 100 | Nc1ncnc2c1nc(Sc1cc(Cl)cc(Cl)c1)n2CC1CCCCC1 [PDP-110A, 9-(Cyclohexylmethyl)-8-((3,5-dichlorophenyl)thio)-9H-purin-6-amine]

Row | IC50 (Trap-1) [µM] | IC50 (Hsp90α) [µM] | IC50 (Grp94) [µM] | IC50 (Hsp90β) [µM] | SMILES
17 | > 100 | > 100 | 0.65 ± 0.05 | > 100 | C#CCCCCn1c(Sc2cc(Cl)cc(Cl)c2)nc2c(N)ncnc21 [PDP-112A, 8-((3,5-Dichlorophenyl)thio)-9-(hex-5-yn-1-yl)-9H-purin-6-amine]
18 | > 100 | > 100 | > 10 | > 100 | C#CCCCCn1cnc(N)c2nc(Sc3cc(Cl)cc(Cl)c3)nc1-2 [PDP-112B, 8-((3,5-Dichlorophenyl)thio)-3-(hex-5-yn-1-yl)-3H-purin-6-amine]
19 | 34.4 | > 100 | 1.58 | > 100 | C#CCCCn1c(Sc2ccc(Cl)cc2C(F)(F)F)nc2c(N)ncnc21 [PDP-117A]
20 | > 100 | > 100 | 1.96 | > 100 | C#CCCCn1c(Sc2cccc(Cl)c2Cl)nc2c(N)ncnc21 [PDP-119A]
21 | > 50 |  | 0.46 ± 0.04 |  | Nc1ncnc2c1nc(Sc1cc(Cl)cc(Cl)c1)n2CCCC(F)(F)F [PDP-I-15-N9, 8-((3,5-Dichlorophenyl)thio)-9-(4,4,4-trifluorobutyl)-9H-purin-6-amine]
22 | > 100 |  | 0.22 ± 0.02 |  | C#CCCCn1c(Sc2cc(Cl)cc(Br)c2)nc2c(N)ncnc21 [PDP-I-53-N9]
23 | 2.62 ± 0.28 |  | 0.28 ± 0.06 | > 50 | C#CCCCn1c(Sc2ccc(Br)cc2Cl)nc2c(N)ncnc21 [PDP-I-61-N9]
24 |  | > 100 | 20 ± 5 | > 100 | C#CCCCn1cnc(N)c2nc(Sc3c(C)cc(C)cc3C)nc1-2 [PU-H37]
25 |  | > 500 | 2.37 ± 0.79 | > 500 | C#CCCCn1cnc(N)c2nc(Sc3ccc(Cl)cc3Cl)nc1-2 [PU-H38]
26 |  | > 100 | 35.3 ± 5 | > 100 | C#CCCCn1cnc(N)c2nc(Sc3cc(Cl)ccc3Cl)nc1-2 [PU-H43]
27 |  | > 100 | > 100 | > 100 | C#CCCCn1cnc(N)c2nc(Sc3cc(C)cc(C)c3)nc1-2 [PU-H45]
28 |  | > 100 | > 100 | > 100 | C#CCCCn1cnc(N)c2nc(Sc3ccccc3OC)nc1-2 [PU-H46]
29 |  | > 100 | 106 | > 100 | C#CCCCn1cnc(N)c2nc(Sc3ccccc3OC(F)(F)F)nc1-2 [PU-H48]
30 |  | > 100 | 2.08 ± 1.49 | > 100 | C#CCCCn1cnc(N)c2nc(Sc3cc(Cl)c(Cl)cc3Cl)nc1-2 [PU-H52]
31 |  | > 100 | 200 | > 100 | C#CCCCn1cnc(N)c2nc(Sc3cc(Cl)ccc3C(F)(F)F)nc1-2 [PU-H53]
32 |  | 5.9 ± 0.5 | 2.3 ± 0.1 | 2.5 ± 0.2 | C#CCCCn1cnc(N)c2nc(Sc3cc(Br)ccc3OC)nc1-2 [PU-H63]
